In brackets after ≈: the same amount, converted by molar mass. Several values for one entry are separate records, joined by “and”; a condition that tells them apart may be missing. Equal values may be shown once. Blank lines part the entries; values can stand above or below the compound they belong to.
How the values were obtained:
Cavia porcellus = details: acute; Inhalation
Oryctolagus sp. [1] = details: for LD50: acute
Rattus norvegicus [2] = details: for LC50 / LD50: acute
Oryctolagus sp. [3] = details: subchronic; inhalation; M/F; sedation
Rattus norvegicus [4] = details: inhalation, M/F
Rattus norvegicus [5] = tested on: Rattus norvegicus
Canidae [6] = details: chronic, oral, M/F, Dog Other
Canidae [7] = details: chronic, oral, Dog Other
Oryctolagus sp. [8] = assay: LD0; higher = less toxic; details: acute; dermal; semiocclusive; New Zealand
Rattus norvegicus [9] = assay: LD0; higher = less toxic; details: acute; dermal; semiocclusive; Sprague-Dawley
Mus musculus [10] = details: acute; oral; CD1
Rattus norvegicus [11] = assay: LC100; higher = less toxic; details: acute; inhalation; Wistar
Rattus norvegicus [12] = details: oral, drinking water, M/F
Mus musculus [13] = details: subchronic; duration: 60 days; oral; gavage; Testes: Decreased sperm counts + Testes: Seminiferous tubule degeneration
Mus musculus [14] = details: subchronic; oral; M/F; no effects
Mus musculus [15] = details: subchronic; duration: 90 days; oral; gavage; M/F; CD-10 (ICR) BR; Whole Body Effects
Mus musculus [16] = details: subchronic; duration: 13 weeks; oral; gavage; M/F; CD1; hepatic
Homo sapiens [17] = details: clinical; duration: 10 weeks; oral; drinking water; Cardiovascular system: Increased blood pressure
Mus musculus [18] = details: uterotrophic, duration: 3 days, Active
Rattus norvegicus [19] = details: uterotrophic; duration: 3 days; oral; Active
Homo sapiens [20] = details: clinical; Induction of resistant enterobacteriaceae
[21] = reproduction developmental, duration: 19 days, oral, gavage, Sprague-Dawley
[22] = short-term, inhalation, New Zealand
[23] = short-term, inhalation, M, Sprague-Dawley
[24] = duration: 12 months, diet, increased relative liver weight in male dogs
[25] = short-term, duration: 8 days, oral, gavage, Sprague-Dawley

Compound: CC(C)(N=C=O)c1cccc(C(C)(C)N=C=O)c1 [1,3-Bis(2-isocyanato-2-propyl)benzene]
LC50 (Cavia porcellus): 0.24 µg/mL (≈ 0.982 µM)
LD50 (Oryctolagus sp. [1]; dermal, occlusive, New Zealand): > 2000 mg/kg
LC50 (Rattus norvegicus [2]; inhalation, Sprague-Dawley): 0.027 µg/mL (≈ 0.111 µM)
LD50 (Rattus norvegicus [2]; oral, gavage, Sprague-Dawley): > 5000 mg/kg
LOAEL (Rattus norvegicus [2]; [21]): 250 mg/kg-day
NOAEL (Rattus norvegicus [2]; [21]): 150 mg/kg-day
NOAEL (Rattus norvegicus [2]; reproduction developmental, duration: 19 days, oral, gavage, Sprague-Dawley, generation: F0): 150 mg/kg-day
NOAEL (Rattus norvegicus [2]; reproduction developmental, duration: 19 days, oral, gavage, Sprague-Dawley, generation: F1): 250 mg/kg-day
NOAEL (Rattus norvegicus [2]; reproduction developmental, oral, gavage, F, Sprague-Dawley): 150 mg/kg-day
NOAEL (Rattus norvegicus [2]; reproduction developmental, oral, gavage, Sprague-Dawley, generation: F1): 250 mg/kg-day
NOAEL (Rattus norvegicus [2]; short-term, duration: 4 weeks, Inhalation, Sprague-Dawley): 1.5 mg/m3

Compound: COCC(C)O (stereo not drawn) [1-Methoxy-2-propanol]
LOAEL (Oryctolagus sp. [3]): 11100 mg/m3
NOAEL (Oryctolagus sp. [3]): 3680 mg/m3
LOAEL (Rattus norvegicus [4]; subchronic, sedation): 11100 mg/m3
NOAEL (Rattus norvegicus [4]; subchronic, sedation): 3680 mg/m3
NOEL (Rattus norvegicus [5]; subchronic, duration: 35 days, oral, gavage, Kidney: Histopathology + Liver: Histopathology): 947 mg/kg-day

Compound: CC(Oc1cc(Cl)c(Cl)cc1Cl)C(=O)O (stereo not drawn) [2-(2,4,5-Trichlorophenoxy)propionic acid]
LOAEL (Canidae [6]; histopathological liver): 2.5 mg/kg-day
NOEL (Canidae [6]; histopathological liver): 0.75 mg/kg-day
NOEL (Canidae [7]; duration: 2 years, diet, Liver: Histopathology): 0.75 mg/kg-day

Compound: O=[N+]([O-])C(CO)(CO)CO [2-(Hydroxymethyl)-2-nitro-1,3-propanediol]
LC50 (Rattus norvegicus [2]; Inhalation, Sprague-Dawley): 2.4 µg/mL (≈ 15.9 µM)
LC50 (Rattus norvegicus [2]; inhalation, particle, Sprague-Dawley): > 2.12 µg/mL
LD50 (Rattus norvegicus [2]; oral, gavage): ≥ 990 mg/kg and ≤ 1000 mg/kg
LD0 (Oryctolagus sp. [8]): > 2000 mg/kg
LD0 (Rattus norvegicus [9]): > 5000 mg/kg

Compound: CC(C)[N+](=O)[O-] [2-Nitropropane]
LD50 (Mus musculus [10]): 393 mg/kg and ≥ 346 mg/kg and ≤ 446 mg/kg
LD50 (Oryctolagus sp. [1]; dermal): > 200 mg/kg
LD50 (Oryctolagus sp. [1]; dermal, New Zealand): > 2000 mg/kg
LD50 (Oryctolagus sp. [1]; oral, gavage): ≥ 500 mg/kg and ≤ 750 mg/kg
LOAEL (Oryctolagus sp. [1]; [22]): 754 mg/m3
NOAEL (Oryctolagus sp. [1]; [22]): 98.4 mg/m3
LC50 (Rattus norvegicus [2]; inhalation, Sprague-Dawley): 2620 mg/m3 and 1460 mg/m3
LC50 (Rattus norvegicus [2]; inhalation, Wistar): ≥ 12.1 µg/mL and ≤ 14.4 µg/mL
NOAEL (Rattus norvegicus [2]; developmental, duration: 15 days, injection, Intraperitoneal, Sprague-Dawley): < 170 mg/kg-day
NOAEL (Rattus norvegicus [2]; reproduction developmental, duration: 15 days, injection, Intraperitoneal, F, Sprague-Dawley): 170 mg/kg-day
LOAEL (Rattus norvegicus [2]; [23]): 754 mg/m3
NOAEL (Rattus norvegicus [2]; [23]): 98.4 mg/m3
LOAEL (Rattus norvegicus [4]; chronic, liver focal vacuolization and nodules): 78 mg/m3
LOAEL (Rattus norvegicus [5]; chronic, duration: 22 months, inhalation, intermittent, Liver: Lesions): 78 mg/m3
LC100 (Rattus norvegicus [11]): 53600 mg/m3

Compound: C=CC#N [Acrylonitrile]
LOAEL (Rattus norvegicus [4]; chronic, duration: 2 years, Degeneration and inflammation of nasal respiratory epithelium + hyperplasia of mucous secreting cells): 43 mg/m3
LOAEL (Rattus norvegicus [12]; chronic, duration: 22 months, Spartan Sprague-Dawley, hematological): 0.09 mg/kg-day
NOAEL (Mus musculus [13]): 1 mg/kg-day

Compound: c1ccc2cc3ccccc3cc2c1 [Anthracene]
NOEL (Mus musculus [14]): 1000 mg/kg-day
NOEL (Mus musculus [15]): 1000 mg/kg-day
NOAEL (Mus musculus [16]): 1000 mg/kg-day

Compound: [Ba] [Barium]
NOAEL (Rattus norvegicus [12]; subchronic, duration: 90 days, Fischer 344, renal): 65 mg/kg-day
NOAEL (Homo sapiens [17]): 0.21 mg/kg-day
NOEL (Rattus norvegicus [5]; developmental, duration: 4 months, inhalation, intermittent, Fetus: Fetotoxicity): 0.8 mg/m3

Compound: O=C(O)c1ccccc1 [Benzoic acid]
LEL (Mus musculus [18]; injection, subcutaneous): 1 µg/100 g
LEL (ug/100 g BW) (Mus musculus [18]; injection, subcutaneous): 10

LEL (Mus musculus [18]; oral): 11.1 mg/kg-day
LEL (Rattus norvegicus [19]): 3.7 mg/kg-day
Compound: O=C(OCc1ccccc1)c1ccccc1O [Benzyl salicylate]

Compound: CCSC(=O)N(CC(C)C)CC(C)C [Butylate]
LOAEL (Canidae [6]; [24]): 25 mg/kg-day
NOAEL (Canidae [6]; [24]): 5 mg/kg-day
NOEL (Canidae [7]; duration: 12 months, capsule, Liver: Increased relative weight): 5 mg/kg-day

Compound: CN(C)[C@@H]1C(=O)C(C(N)=O)=C(O)[C@@]2(O)C(=O)C3=C(O)c4c(O)ccc(Cl)c4[C@@](C)(O)[C@H]3C[C@@H]12 [Chlortetracycline]
LOEL (Homo sapiens [20]): 20 mg/day
NOEL (Homo sapiens [20]): 2 mg/day

Compound: CC(C)C(C)(C)C(C)(C)C(C)(C)SSSSSC(C)(C)C(C)(C)C(C)(C)C(C)C [Di-tert-Dodecyl pentasulfide]
NOAEL (Rattus norvegicus [2]; developmental, duration: 6 days, oral, gavage, Sprague-Dawley): 1000 mg/kg-day
NOAEL (Rattus norvegicus [2]; reproduction developmental, duration: 6 days, oral, gavage, F, Sprague-Dawley): 1000 mg/kg-day
LOAEL (Rattus norvegicus [2]; [25]): 2500 mg/kg-day
NOAEL (Rattus norvegicus [2]; [25]): 1250 mg/kg-day
NOAEL (Rattus norvegicus [2]; short-term, duration: 28 days, oral, gavage, Sprague-Dawley): 1000 mg/kg-day
LD0 (Rattus norvegicus [9]): ≥ 2000 mg/kg
